Test systems include 786-0 renal; A549 NSCLC; CAKI-1 renal; K-562 leukemia; NCI-H226 lung; OVCAR-8 ovarian; SF-295 CNS; SN12C renal.
What all share (assay): DTP human tumour cell line panel, 48 h

We go through 21 compounds from PubChem BioAssay (NCI).

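Values below derive from 48-hour exposures of cells grown in 96-well plates, with endpoints linearly interpolated between the two concentrations bracketing the appropriate inhibition level. GI50 marks 50% less growth. TGI marks complete inhibition of growth.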

Usually TGI stands for the concentration giving total growth inhibition. Lower therefore signals more potent growth arrest. As usually defined, the GI50 is the concentration at which growth is held to half of that of the control.

With `CC(C)CCCC(C)[C@H]1CCC2[C@@H]3CCC4Nc5nocc5C[C@]4(C)C3CC[C@@]21C` (some centres not stated), the TGI in the experiment with 786-0 renal is 25.9 µM; with A549 NSCLC, 54.8 µM; in the experiment on CAKI-1 renal, 29 µM; in the experiment on K-562 leukemia, 38.3 µM; with NCI-H226 lung, 37.3 µM; in the experiment with OVCAR-8 ovarian, 35.9 µM. Also, the TGI turned out to be 34 µM in the experiment with SF-295 CNS and 33.8 µM in the experiment on SN12C renal.
As to `COCC(O)Cn1ccnc1[N+](=O)[O-]` (configuration not stated), the TGI in the experiment with 786-0 renal, in the experiment on A549 NSCLC, in the experiment on CAKI-1 renal, with K-562 leukemia, in the experiment on NCI-H226 lung and in the experiment with OVCAR-8 ovarian was more than 100 µM in each case. Also, the concentration for total growth inhibition (TGI) in the experiment on SF-295 CNS and in the experiment with SN12C renal was more than 100 µM throughout.
`Cc1cc2c(C)nn(Cc3ccccc3)c2c(C(N)=O)c1C`: the TGI with 786-0 renal, in the experiment on A549 NSCLC, with K-562 leukemia, in the experiment with OVCAR-8 ovarian, in the experiment on SF-295 CNS and in the experiment with SN12C renal was more than 100 µM each time.
In the case of `COC1OC(CBr)C(OC(=O)c2ccccc2)C(O)C1Br` (configuration not stated), the TGI with 786-0 renal, in the experiment with A549 NSCLC, in the experiment with CAKI-1 renal, with K-562 leukemia, with NCI-H226 lung and with OVCAR-8 ovarian was more than 100 µM in each case. The TGI in the experiment with SF-295 CNS and in the experiment with SN12C renal was more than 100 µM throughout.
In the case of `O=C1Nc2nc3ccccc3n2N=C2CCCC12` (configuration not stated), the total growth inhibition concentration (TGI) in the experiment with 786-0 renal, in the experiment with A549 NSCLC, in the experiment on CAKI-1 renal, with K-562 leukemia, in the experiment with OVCAR-8 ovarian and in the experiment on SF-295 CNS was more than 100 µM each time. In addition, the concentration for total growth inhibition (TGI) in the experiment on SN12C renal was more than 100 µM.
`C[C@]12CCC(=O)C=C1CC[C@@H]1C2CC[C@]2(C)Nc3c(cnn3-c3ccccc3)CC12` (some centres not stated): the concentration for total growth inhibition (TGI) in the experiment with 786-0 renal, in the experiment with A549 NSCLC, in the experiment with CAKI-1 renal, in the experiment on K-562 leukemia, in the experiment on NCI-H226 lung and with OVCAR-8 ovarian was more than 100 µM in each case. The same compound had a concentration for total growth inhibition (TGI) with SF-295 CNS of more than 10 µM.
`N.N.N.N.N.[Cl-].[Co+3].c1ccc(-c2nn[n-]n2)cc1`: the GI50 in the experiment with 786-0 renal, in the experiment with A549 NSCLC, with CAKI-1 renal, with K-562 leukemia, with NCI-H226 lung and in the experiment on OVCAR-8 ovarian was more than 100 µM in each case. Also, the GI50 in the experiment with SF-295 CNS and in the experiment on SN12C renal was more than 100 µM throughout. For the same compound, the TGI with 786-0 renal, in the experiment on A549 NSCLC, in the experiment on CAKI-1 renal, with K-562 leukemia, in the experiment with NCI-H226 lung and in the experiment with OVCAR-8 ovarian was more than 100 µM in each case. The TGI with SF-295 CNS and in the experiment on SN12C renal was more than 100 µM each time.
Take `O=c1[nH]nc2ccccc2c1Cc1ccccc1`: the concentration for total growth inhibition (TGI) in the experiment with 786-0 renal, with A549 NSCLC, in the experiment on CAKI-1 renal, with K-562 leukemia, in the experiment with NCI-H226 lung and in the experiment with OVCAR-8 ovarian was more than 100 µM each time. The concentration for total growth inhibition (TGI) with SF-295 CNS and with SN12C renal was more than 100 µM in each case.
Turning to `C1COCCN1.C1COCCN1.NC1CCCCC1N.[Cl-].[Pt+2]` (configuration not stated), the GI50 in the experiment with 786-0 renal, in the experiment on A549 NSCLC, in the experiment with CAKI-1 renal, with K-562 leukemia, in the experiment on NCI-H226 lung and in the experiment on OVCAR-8 ovarian was more than 100 µM in each case. The GI50 in the experiment with SF-295 CNS and in the experiment on SN12C renal was more than 100 µM in each case. In addition, the TGI in the experiment with 786-0 renal, in the experiment on A549 NSCLC, with CAKI-1 renal, in the experiment on K-562 leukemia, with NCI-H226 lung and in the experiment with OVCAR-8 ovarian was more than 100 µM throughout. The concentration for total growth inhibition (TGI) in the experiment with SF-295 CNS and in the experiment on SN12C renal was more than 100 µM in each case.
For the compound `CCC(C)[C@H]1O[C@]2(C=C[C@@H]1C)C[C@@H]1C[C@@H](C/C=C(\C)[C@@H](OC3C[C@H](OC)C(O[C@H]4C[C@H](OC)[C@@H](O)[C@H](C)O4)[C@H](C)O3)[C@@H](C)/C=C/C=C3\CO[C@@H]4[C@H](O)C(C)=C[C@@H](C(=O)O1)[C@]34O)O2` (some centres not stated), the GI50 is 0.728 µM in the experiment with 786-0 renal; 1.22 µM in the experiment on A549 NSCLC; 1.08 µM in the experiment with NCI-H226 lung; 1.72 µM in the experiment with OVCAR-8 ovarian; 1.65 µM with SN12C renal. Further, the concentration for total growth inhibition (TGI) in the experiment with 786-0 renal is 1.56 µM; in the experiment on A549 NSCLC it was 7.04 µM; with NCI-H226 lung it was 3.27 µM; in the experiment with OVCAR-8 ovarian, 9.73 µM; in the experiment on SN12C renal it was 6.95 µM.
Consider `CCN(CC)CCOc1ccc(CCc2cc(OC)c(OC)c(OC)c2)cc1`, for which the TGI with 786-0 renal, in the experiment with A549 NSCLC, with CAKI-1 renal, in the experiment on K-562 leukemia, in the experiment with NCI-H226 lung and with OVCAR-8 ovarian was more than 100 µM in each case. The total growth inhibition concentration (TGI) with SF-295 CNS was 50.5 µM; in the experiment on SN12C renal it was more than 100 µM.
Consider `Cc1ccc(SSc2ccc(C)cc2C(=O)O)c(C(=O)O)c1`, for which the TGI in the experiment with 786-0 renal, with A549 NSCLC, in the experiment on CAKI-1 renal, in the experiment on K-562 leukemia, in the experiment on NCI-H226 lung and with OVCAR-8 ovarian was more than 100 µM each time. The total growth inhibition concentration (TGI) in the experiment on SF-295 CNS and in the experiment with SN12C renal was more than 100 µM in each case.
With `O=C1NC2(CCCCCC2)C2CCCCCCC12O` (configuration not stated), the TGI in the experiment on 786-0 renal, with A549 NSCLC, in the experiment with CAKI-1 renal, with K-562 leukemia, in the experiment with OVCAR-8 ovarian and in the experiment with SF-295 CNS was more than 100 µM throughout. The same compound returned a total growth inhibition concentration (TGI) in the experiment with SN12C renal of more than 100 µM.
`Cc1oc2c(C)c3oc(=O)cc(C)c3cc2c1CN1C(=O)C2OCCOCCOCCOCCOCCO[C@H]2C1=O` (some centres not stated): the TGI in the experiment on 786-0 renal, in the experiment on A549 NSCLC, in the experiment on CAKI-1 renal, with K-562 leukemia, with NCI-H226 lung and with OVCAR-8 ovarian was more than 100 µM in each case. In addition, the TGI in the experiment with SF-295 CNS and in the experiment with SN12C renal was more than 100 µM throughout.
For `C1=CC=C2NCCCCCCCNC3=CC=CC=CC3=NCCCCCCCN=C2C=C1`, the TGI with 786-0 renal, in the experiment with A549 NSCLC, in the experiment with CAKI-1 renal, with K-562 leukemia, in the experiment with NCI-H226 lung and in the experiment on OVCAR-8 ovarian was more than 100 µM in each case. For the same compound, the total growth inhibition concentration (TGI) in the experiment on SF-295 CNS and in the experiment on SN12C renal was more than 100 µM throughout.
For `O=C1C2C3C=C4c5ccccc5N(c5ccccc5)C4(C2C(=O)N1c1ccc(Cl)cc1)[C@H]1C(=O)N(c2ccc(Cl)cc2)C(=O)[C@@H]31` (some centres not stated), the concentration for total growth inhibition (TGI) is more than 100 µM with 786-0 renal; more than 100 µM with A549 NSCLC; 76.3 µM in the experiment with CAKI-1 renal; more than 100 µM with K-562 leukemia; more than 100 µM with NCI-H226 lung; more than 100 µM with OVCAR-8 ovarian. The TGI in the experiment with SF-295 CNS and in the experiment on SN12C renal was more than 100 µM throughout.
As to `Cc1cc(C(=C2C=CC(=Nc3ccccc3)C=C2)c2ccc(Nc3ccccc3)cc2)ccc1N`, the GI50 with 786-0 renal is 0.259 µM; in the experiment with A549 NSCLC it was 0.599 µM; in the experiment with NCI-H226 lung, 0.446 µM; with OVCAR-8 ovarian it was 0.254 µM; with SF-295 CNS it was 0.385 µM; with SN12C renal, 0.31 µM. Also, the TGI turned out to be 0.709 µM in the experiment on 786-0 renal; 1.69 µM with A549 NSCLC; 1.72 µM in the experiment with NCI-H226 lung; 0.913 µM in the experiment with OVCAR-8 ovarian; 1.35 µM in the experiment on SF-295 CNS; 1.48 µM in the experiment with SN12C renal.
With `O=C(CC(=O)C1=CNc2ccccc2S1)C(=O)Nc1ccc(Cl)cc1`, the TGI in the experiment with 786-0 renal, with A549 NSCLC, in the experiment with CAKI-1 renal, with K-562 leukemia, in the experiment with NCI-H226 lung and in the experiment on OVCAR-8 ovarian was more than 50 µM each time. For the same compound, the TGI in the experiment on SF-295 CNS and in the experiment with SN12C renal was more than 50 µM throughout.
Consider `COc1ccc2c(c1)[n+]([O-])c(-c1ccc(OC)c(OC)c1)c(N)[n+]2[O-]`, for which the TGI in the experiment on 786-0 renal was more than 100 µM; with A549 NSCLC it was more than 100 µM; with CAKI-1 renal, 72.2 µM; in the experiment on K-562 leukemia it was more than 100 µM; in the experiment on NCI-H226 lung, more than 100 µM; in the experiment on OVCAR-8 ovarian, more than 100 µM. Further, the concentration for total growth inhibition (TGI) with SF-295 CNS and in the experiment with SN12C renal was more than 100 µM throughout.
`Cc1cc(NCCCCCCNc2cc(C)nc3cc(N(C)C)ccc23)c2ccc(N(C)C)cc2n1`: the TGI with 786-0 renal, in the experiment on CAKI-1 renal, in the experiment with K-562 leukemia, in the experiment on OVCAR-8 ovarian, in the experiment with SF-295 CNS and in the experiment on SN12C renal was more than 100 µM throughout.
As for `OCC1C(/C=C/c2ccoc2)ON2CCCC12` (configuration not stated), the TGI with 786-0 renal, in the experiment with A549 NSCLC, in the experiment on CAKI-1 renal, with NCI-H226 lung, with OVCAR-8 ovarian and with SF-295 CNS was more than 100 µM each time. The same compound returned a total growth inhibition concentration (TGI) with SN12C renal of more than 100 µM.
